According to paper PMC3114339 (Diabetes Care, 2011):

Tested on: type 2 diabetic subjects
Assay: Euglycemic glucose clamp for 32 h after s.c. injection of basal insulin
Type: in vivo, human

Substance | interquartile range in time of duration of action (plasma glucose >136 mg/dL) (32-h clamp, statistical significance achieved only versus detemir) | mean GIR AUC0–32 h greater with glargine than NPH (32-h euglycemic clamp, 0.4 units/kg s.c., relative difference versus NPH) | mean GIR AUC0–32 h greater with glargine than detemir (32-h euglycemic clamp, 0.4 units/kg s.c., relative difference versus detemir) | plasma free fatty acid concentrations higher with detemir compared with glargine (throughout the 32-h clamp study, P < 0.001) | plasma free fatty acid concentrations higher with detemir compared with NPH (throughout the 32-h clamp study, P = 0.003)
glargine | smaller interquartile range in time of duration of action than NPH and detemir | 31% | 42% |  | 
detemir |  |  |  | +26% | +15%
